Results on 16 compounds are retold here after patent US8901118B2, “Compounds and methods for kinase modulation, and indications therefor” (Plexxikon Inc., priority 2010, dated 2014).

One test deals with T1, BCR-KIT BaF3 cells (Homo sapiens, UniProt P10721).
T1 construct: fused on or other part: P11274 (Breakpoint cluster region protein)
The test is described as follows: BaF3 BCR-KIT cell proliferation assay (ATPlite). The test is classed as cell-based. Conditions: read-out: Inhibition of Cell Proliferation IC50, BCR/BaF3 Kit. The procedure:
Compounds are assessed in a variety of cell based assays. For example BaF3 cells engineered with any of BCR-FMS, BCR-KIT, BCR-FLT3, BCR-NTRK1, BCR-NTRK2, and BCR-NTRK3, are used in cell proliferation assays to assess inhibitory activity of Fms, Kit, Flt-3, TrkA, TrkB, and TrkC, respectively. An MV-4-11 (leukemia) cell proliferation assay is used to assess inhibitory activity in Flt-3, and SKNSH (human neuroblastoma) cell proliferation assay is used to assess efficacy of Fms/Trk inhibitors. Additional cells may be assayed similarly to assess the efficacy of Fms/Trk inhibitors, such as MiaPaCa (human pancreatic cancer) and Capan-1 (human pancreatic carcinoma) cells. Reagent and assay conditions are as follows: • BaF3 cells: • Maintained in RPMI containing 10% FBS, 1% PenStrep, 1% NEAA, and 1% L-Glutamine, supplemented with 1 mg/mL G418 and 5% WEHI-CM (or recombinant murine IL-3). • Confluent cells are split 1:50 to 1:100 every 3-4 days. • MV-4-11 cells: • Maintained in Iscove's Modified Dulbecco's Medium containing 10% FBS. • Confluent cells are split 1:4 every 3-4 days. • SKNSH cells: RPMI containing 10% FBS. On day 1, cells are counted, then centrifuged in a conical tube for 5 minutes at 1000 rpm. The supernatant is removed and cells are re-suspended as follows: • BaF3: resuspend in growth media +1 mg/mL G418 (without WEHFIL-3) to 2×10^5 cells/mL. • MV-4-11: resuspend in growth media to 5×10^5 cells/mL. • SKNSH: resuspend in growth media to 2×10^4 cells/mL. The cells are plated (50 μL, 150 μL for SKNSH cells) in each well of a 96-well dish (Corning 3610) and incubated at 37° C. in 5% CO2 overnight, cells plated to a final concentration of cells as follows: • BaF3: 10,000 cells per well. • MV-4-11: 25,000 cells per well. • SKNSH: 3,000 cells per well. On day 2, compound at a maximum concentration of 5 mM is serially diluted 1:3 for a total of 8 point titration with DMSO as a control. A 1 μL aliquot of each dilution point is added to 249 μL growth media and 50 μL is added to a well containing cells, providing 10 μM compound for the maximum concentration point. The cells are incubated for 3 days at 37° C. in 5% CO2. For SKNSH cells, a 0.75 μL aliquot of appropriate dilution in DMSO is added to 150 μL of cells. On day 5, ATPlite 1 step Luminescence Assay System (Perkin Elmer #6016739) is brought to room temperature along with the cell cultures. ATPlite is added to each well as follows: • BaF3: 25 μL per well. • MV-4-11: 40 μL per well. • SKNSH: 20 μL per well. The cells are incubated at room temperature for 10 minutes, then luminescence is read on Safire reader. The measured luminescence correlates directly with cell number, such that the reading as a function of compound concentration is used to determine the IC50 value.
It is understood that the results of these assays may vary as assay conditions are varied. Inhibition levels determined under the conditions described herein represent a relative activity for the compounds tested under the specific conditions employed. The cell based assays are likely to show variability due to the complexity of the system and the sensitivity thereof to any changes in the assay conditions. […] Results for compounds that are tested and show substantially no inhibition below the highest tested concentration are represented as “-” in the tables below. In some instances, the compounds were not tested in all of the assays, or assay results were not valid, as indicated by NA in the tables below.

A further test has as its target T2, CYP1A2 (Homo sapiens, UniProt P05177).
T2 sequence (P05177 1-516): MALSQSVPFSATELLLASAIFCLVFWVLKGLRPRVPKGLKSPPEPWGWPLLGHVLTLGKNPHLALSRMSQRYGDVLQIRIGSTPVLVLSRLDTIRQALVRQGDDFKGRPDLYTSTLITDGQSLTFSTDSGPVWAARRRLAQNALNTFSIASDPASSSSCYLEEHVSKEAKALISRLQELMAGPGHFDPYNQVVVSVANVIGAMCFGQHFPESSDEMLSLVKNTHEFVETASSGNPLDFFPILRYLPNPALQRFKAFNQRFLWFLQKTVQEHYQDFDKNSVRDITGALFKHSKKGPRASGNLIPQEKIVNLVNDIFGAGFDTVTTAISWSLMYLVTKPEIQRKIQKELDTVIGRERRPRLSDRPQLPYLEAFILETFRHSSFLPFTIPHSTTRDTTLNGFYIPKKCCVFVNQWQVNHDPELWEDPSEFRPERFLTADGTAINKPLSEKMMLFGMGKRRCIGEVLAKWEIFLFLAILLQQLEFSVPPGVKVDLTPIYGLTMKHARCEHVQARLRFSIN
In words: CYP1A2 inhibition (fluorescent substrate CEC). The class given is in vitro ADME. Conditions: read-out: Cyp IC50 1A2. The procedure:
CYP (Cytochrome P450) enzymes are the major drug metabolizing enzymes present in the liver. The inhibition of CYP enzyme activity (IC50) for each of CYP1A2, CYP2C19, CYP2C9, CYP2D6, CYP3A4(BFC) and CYP3A4(BQ) is determined for compounds, where inhibition of metabolism of a known substrate leads to a decrease in the fluorescence of the metabolized product. The fluorescence of the product is monitored as a function of compound concentration. Compounds are dissolved in DMSO to a concentration of 100 mM. These are diluted 1 μL into 82 μL of acetonitrile. An 11 μL aliquot of this solution is then added to 204 μL of cofactor mix (1.3% NADPH Regeneration system Solution A, 1.04% NADPH Regeneration system Solution B from BD Biosciences, 5% acetonitrile and 0.05% DMSO). These are then serially diluted 1:1 (160 μL to 160 μL co-factor mix) for a total of 10 points. A 10 μL aliquot of this final mixture is dispensed into 384 well assay plates and incubated for 10 minutes at 37° C. […] Assay plates are incubated at 37° C. (CYP1A2-15 min; CYP2C9-45 min; CYP2C19, 2D6 and 3A4-30 min) and read in a Tecan Safire 2 plate reader (CYP1A2, 2C19 and 3A4 409 ex/460 em; CYP2C9 and 2D6 409 ex/530 em). The signal versus compound concentration is used to determine the IC50. The enzymes and substrates for this assay are obtained from BD Biosciences.

T1 sequence (P10721 589-937): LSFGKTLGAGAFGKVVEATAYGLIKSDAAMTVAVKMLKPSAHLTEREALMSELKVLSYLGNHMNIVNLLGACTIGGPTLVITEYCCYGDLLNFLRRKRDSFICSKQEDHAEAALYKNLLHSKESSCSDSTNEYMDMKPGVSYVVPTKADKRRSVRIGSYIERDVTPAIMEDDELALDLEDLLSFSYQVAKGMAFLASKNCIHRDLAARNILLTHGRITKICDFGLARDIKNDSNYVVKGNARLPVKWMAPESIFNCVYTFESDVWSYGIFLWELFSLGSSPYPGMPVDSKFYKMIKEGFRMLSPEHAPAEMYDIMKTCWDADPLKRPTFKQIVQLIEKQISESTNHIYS

For `COc1ccc(Nc2ccc(C(=O)c3c[nH]c4ncnc(NCc5ccc(C(F)(F)F)nc5)c34)c(F)n2)cn1` [Compound P-4071, [2-fluoro-6-[(6-methoxy-3-pyridyl)amino]-3-pyridyl]-[4-[[6-(trifluoromethyl)-3-pyridyl]methylamino]-7H-pyrrolo[2,3-d]pyrimidin-5-yl]methanone], the values for the IC50 on BCR-KIT BaF3 cells and at CYP1A2 were less than 100 nM and greater than 10000 nM, respectively.
As for `CCNc1ncnc2[nH]cc(C(=O)c3ccc(Nc4ccc(OC)nc4)nc3F)c12` [Compound P-4081, [4-(ethylamino)-7H-pyrrolo[2,3-d]pyrimidin-5-yl]-[2-fluoro-6-[(6-methoxy-3-pyridyl)amino]-3-pyridyl]methanone], the figures for the IC50 at BCR-KIT BaF3 cells and at CYP1A2 were less than 100 nM and greater than 10000 nM, respectively.
For `CNc1ncnc2[nH]cc(C(=O)c3ccc(Nc4ccc(OC)nc4)nc3OC)c12` [Compound P-4085, [2-methoxy-6-[(6-methoxy-3-pyridyl)amino]-3-pyridyl]-[4-(methylamino)-7H-pyrrolo[2,3-d]pyrimidin-5-yl]methanone], the IC50 at BCR-KIT BaF3 cells was greater than 1000 nM.
For `CCc1ccc(Nc2ccc(C(=O)c3c[nH]c4ncnc(N)c34)c(F)n2)cn1` [Compound P-4065, (4-amino-7H-pyrrolo[2,3-d]pyrimidin-5-yl)-[6-[(6-ethyl-3-pyridyl)amino]-2-fluoro-3-pyridyl]methanone], the values for the IC50 on BCR-KIT BaF3 cells and at CYP1A2 were less than 100 nM and greater than 10000 nM, respectively.
For `CCc1ccc(Nc2ccc(C(=O)c3c[nH]c4ncnc(NC(C)C)c34)c(F)n2)cn1` [Compound P-4117, [6-[(6-ethyl-3-pyridyl)amino]-2-fluoro-3-pyridyl]-[4-(isopropylamino)-7H-pyrrolo[2,3-d]pyrimidin-5-yl]methanone] the same measures were less than 100 nM and 5000 to 10000 nM.
For `CCCCNc1ncnc2[nH]cc(C(=O)c3ccc(Nc4ccc(OC)nc4)nc3F)c12` [Compound P-4080, [4-(butylamino)-7H-pyrrolo[2,3-d]pyrimidin-5-yl]-[2-fluoro-6-[(6-methoxy-3-pyridyl)amino]-3-pyridyl]methanone] the same measures were less than 100 nM and greater than 10000 nM.
For `CNc1ncnc2[nH]cc(C(=O)c3ccc(NC4CCC(F)(F)CC4)nc3F)c12` [Compound P-4063, [6-[(4,4-difluorocyclohexyl)amino]-2-fluoro-3-pyridyl]-[4-(methylamino)-7H-pyrrolo[2,3-d]pyrimidin-5-yl]methanone] the same measures were less than 100 nM and greater than 10000 nM.
Turning to `Cc1ccc(Nc2ccc(C(=O)c3c[nH]c4ncnc(NCC5CC5)c34)c(F)n2)cn1` [Compound P-4113, [4-(cyclopropylmethylamino)-7H-pyrrolo[2,3-d]pyrimidin-5-yl]-[2-fluoro-6-[(6-methyl-3-pyridyl)amino]-3-pyridyl]methanone], the IC50 on BCR-KIT BaF3 cells was less than 1000 nM; at CYP1A2, greater than 10000 nM.
For `COc1ccc(Nc2ccc(C(=O)c3c[nH]c4ncnc(NC5CCC(F)(F)CC5)c34)c(F)n2)cn1` [Compound P-4056, [4-[(4,4-difluorocyclohexyl)amino]-7H-pyrrolo[2,3-d]pyrimidin-5-yl]-[2-fluoro-6-[(6-methoxy-3-pyridyl)amino]-3-pyridyl]methanone] the same measures were greater than 1000 nM and greater than 10000 nM.
For `CCCNc1ncnc2[nH]cc(C(=O)c3ccc(Nc4ccc(OC)nc4)nc3F)c12` [Compound P-4068, [2-fluoro-6-[(6-methoxy-3-pyridyl)amino]-3-pyridyl]-[4-(propylamino)-7H-pyrrolo[2,3-d]pyrimidin-5-yl]methanone] the same measures were less than 100 nM and greater than 10000 nM.
Turning to `O=C(c1ccc(NC2CCC(F)(F)CC2)nc1Cl)c1c[nH]c2ncnc(NCC(F)(F)F)c12` [Compound P-4057, [2-chloro-6-[(4,4-difluorocyclohexyl)amino]-3-pyridyl]-[4-(2,2,2-trifluoroethylamino)-7H-pyrrolo[2,3-d]pyrimidin-5-yl]methanone], the IC50 on BCR-KIT BaF3 cells is greater than 1000 nM; on CYP1A2, greater than 10000 nM.
For `COCCCNc1ncnc2[nH]cc(C(=O)c3ccc(Nc4ccc(OC)nc4)nc3F)c12` [Compound P-4079, [2-fluoro-6-[(6-methoxy-3-pyridyl)amino]-3-pyridyl]-[4-(3-methoxypropylamino)-7H-pyrrolo[2,3-d]pyrimidin-5-yl]methanone] the same measures were less than 100 nM and greater than 10000 nM.
For `CNc1ncnc2[nH]cc(C(=O)c3ccc(NC4CCCCC4)nc3F)c12` [Compound P-4102, [6-(cyclohexylamino)-2-fluoro-3-pyridyl]-[4-(methylamino)-7H-pyrrolo[2,3-d]pyrimidin-5-yl]methanone] the same measures were less than 1000 nM and less than 5000 nM.
For `COc1ccc(Nc2ccc(C(=O)c3c[nH]c4ncnc(NC5CC5)c34)c(F)n2)cn1` [Compound P-4126, [4-(cyclopropylamino)-7H-pyrrolo[2,3-d]pyrimidin-5-yl]-[2-fluoro-6-[(6-methoxy-3-pyridyl)amino]-3-pyridyl]methanone] the same measures were less than 100 nM and less than 5000 nM.
For `Clc1cnc2[nH]cc(Cc3cnc(Nc4ccccc4Cl)nc3)c2c1` [Compound P-3015, (2-Chloro-phenyl)-[5-(5-chloro-1H-pyrrolo[2,3-b]pyridin-3-ylmethyl)-pyrimidin-2-yl]-amine], the IC50 on BCR-KIT BaF3 cells is greater than 1000 nM.
With `Fc1ccccc1Nc1ncc(Cc2c[nH]c3ncc(Cl)cc23)cn1` [Compound P-3014, [5-(5-Chloro-1H-pyrrolo[2,3-b]pyridin-3-ylmethyl)-pyrimidin-2-yl]-(2-fluoro-phenyl)-amine], the IC50 on BCR-KIT BaF3 cells is greater than 1000 nM.
